Test: xn = mol fraction of the nth substance listed
Settings: Liquid; for speed of sound: 100 kPa, Linear variable-path acoustic interferometer; for viscosity: Capillary tube (Ostwald / Ubbelohde) method; for mass density: Pycnometric method

CC(=O)c1ccccc1 [acetophenone] + NC=O
298.15 K
Settings | speed of sound [m/s]
x2 = 0 | 1296.4
x2 = 0.2286 | 1304.8
x2 = 0.4001 | 1323.3
x2 = 0.5334 | 1345.8
x2 = 0.6401 | 1379.3
x2 = 0.7273 | 1413.6
x2 = 0.8001 | 1456.5
x2 = 0.8616 | 1488.4
x2 = 0.9143 | 1527.3
x2 = 0.96 | 1558.9

101.3 kPa
Settings | mass density, 298.15 K [kg/m3] | mass density, 308.15 K [kg/m3] | mass density, 318.15 K [kg/m3] | viscosity, 298.15 K [mPa·s] | viscosity, 308.15 K [mPa·s] | viscosity, 318.15 K [mPa·s]
x2 = 0 | 1023.1 | 1014.8 | 1007.5 | 1.653 | 1.412 | 1.117
x2 = 0.2286 | 1032.9 | 1024.9 | 1017.5 | 2.234 | 1.762 | 1.377
x2 = 0.4001 | 1042.9 | 1035.1 | 1027.5 | 2.795 | 2.077 | 1.607
x2 = 0.5334 | 1053.1 | 1045.3 | 1037.6 | 3.267 | 2.355 | 1.825
x2 = 0.6401 | 1063.3 | 1055.5 | 1047.7 | 3.596 | 2.587 | 1.988
x2 = 0.7273 | 1073.8 | 1065.8 | 1057.9 | 3.778 | 2.724 | 2.1
x2 = 0.8001 | 1084.4 | 1076.3 | 1068.2 | 3.819 | 2.779 | 2.141
x2 = 0.8616 | 1095.3 | 1087 | 1078.7 | 3.735 | 2.748 | 2.111
x2 = 0.9143 | 1106.4 | 1097.9 | 1089.4 | 3.59 | 2.685 | 2.068
x2 = 0.96 | 1117.7 | 1109.1 | 1100.1 | 3.439 | 2.608 | 2.027

NC=O [formamide] + CC#N
298.15 K
Settings | speed of sound [m/s]
x1 = 0.0919 | 1277.7
x1 = 0.1856 | 1299.6
x1 = 0.2809 | 1322.8
x1 = 0.3779 | 1349.6
x1 = 0.4768 | 1380.8
x1 = 0.5775 | 1412.8
x1 = 0.6802 | 1449
x1 = 0.7847 | 1488.8
x1 = 0.8913 | 1529.8
x1 = 1 | 1591.3

101.3 kPa
Settings | mass density, 298.15 K [kg/m3] | mass density, 308.15 K [kg/m3] | mass density, 318.15 K [kg/m3] | viscosity, 298.15 K [mPa·s] | viscosity, 308.15 K [mPa·s] | viscosity, 318.15 K [mPa·s]
x1 = 0.0919 | 803.8 | 794.9 | 785.6 | 0.402 | 0.366 | 0.339
x1 = 0.1856 | 832.8 | 824.1 | 815.8 | 0.485 | 0.432 | 0.396
x1 = 0.2809 | 863.4 | 855.1 | 847.4 | 0.593 | 0.522 | 0.472
x1 = 0.3779 | 895.8 | 887.4 | 879.9 | 0.733 | 0.635 | 0.565
x1 = 0.4768 | 929.2 | 921.2 | 914 | 0.921 | 0.786 | 0.687
x1 = 0.5775 | 965.2 | 956.6 | 950.7 | 1.168 | 0.978 | 0.847
x1 = 0.6802 | 1002.9 | 994.4 | 989.4 | 1.507 | 1.239 | 1.046
x1 = 0.7847 | 1042.6 | 1034.7 | 1029.3 | 1.945 | 1.569 | 1.295
x1 = 0.8913 | 1085.1 | 1076.9 | 1071.6 | 2.54 | 1.999 | 1.615
x1 = 1 | 1129.2 | 1120.5 | 1111.1 | 3.302 | 2.542 | 2.001

COCCOC [1,2-dimethoxyethane] + NC=O
298.15 K
Settings | speed of sound [m/s]
x2 = 0 | 1146.2
x2 = 0.1819 | 1200.3
x2 = 0.3334 | 1254.3
x2 = 0.4616 | 1306.2
x2 = 0.5715 | 1355
x2 = 0.6668 | 1399.9
x2 = 0.7501 | 1441.9
x2 = 0.8236 | 1480.5
x2 = 0.8889 | 1518.5
x2 = 0.9474 | 1556.1

Settings | mass density, 298.15 K [kg/m3] | mass density, 308.15 K [kg/m3] | mass density, 318.15 K [kg/m3] | viscosity, 298.15 K [mPa·s] | viscosity, 308.15 K [mPa·s] | viscosity, 318.15 K [mPa·s]
101 kPa, x2 = 0 | 861.5 | 850.7 | 839.6 | – | – | –
101 kPa, x2 = 0.1819 | 893.1 | 883.5 | 874.6 | – | – | –
101 kPa, x2 = 0.3334 | 920.1 | 910.4 | 902.6 | – | – | –
101 kPa, x2 = 0.4616 | 946 | 936.3 | 929.4 | – | – | –
101 kPa, x2 = 0.5715 | 971.8 | 962.3 | 955.9 | – | – | –
101 kPa, x2 = 0.6668 | 997.3 | 988.5 | 982.2 | – | – | –
101 kPa, x2 = 0.7501 | 1022.2 | 1013.6 | 1007.5 | – | – | –
101 kPa, x2 = 0.8236 | 1048.3 | 1039.4 | 1033.3 | – | – | –
101 kPa, x2 = 0.8889 | 1073.7 | 1065.7 | 1059.2 | – | – | –
101 kPa, x2 = 0.9474 | 1100.3 | 1092.7 | 1085.5 | – | – | –
101.3 kPa, x2 = 0 | – | – | – | 0.409 | 0.366 | 0.33
101.3 kPa, x2 = 0.1819 | – | – | – | 0.603 | 0.522 | 0.459
101.3 kPa, x2 = 0.3334 | – | – | – | 0.848 | 0.713 | 0.609
101.3 kPa, x2 = 0.4616 | – | – | – | 1.164 | 0.952 | 0.785
101.3 kPa, x2 = 0.5715 | – | – | – | 1.545 | 1.243 | 0.994
101.3 kPa, x2 = 0.6668 | – | – | – | 1.925 | 1.536 | 1.218
101.3 kPa, x2 = 0.7501 | – | – | – | 2.296 | 1.806 | 1.427
101.3 kPa, x2 = 0.8236 | – | – | – | 2.627 | 2.045 | 1.614
101.3 kPa, x2 = 0.8889 | – | – | – | 2.899 | 2.243 | 1.775
101.3 kPa, x2 = 0.9474 | – | – | – | 3.12 | 2.408 | 1.903

NC=O [formamide] + COCCO
298.15 K
Settings | speed of sound [m/s]
x1 = 0.1581 | 1353.6
x1 = 0.2969 | 1373.7
x1 = 0.4199 | 1397.5
x1 = 0.5297 | 1423.8
x1 = 0.6282 | 1451.1
x1 = 0.7171 | 1478.3
x1 = 0.7977 | 1506
x1 = 0.8711 | 1533.9
x1 = 0.9383 | 1564.3
x1 = 1 | 1591.3

101.3 kPa
Settings | mass density, 298.15 K [kg/m3] | mass density, 308.15 K [kg/m3] | mass density, 318.15 K [kg/m3] | viscosity, 298.15 K [mPa·s] | viscosity, 308.15 K [mPa·s] | viscosity, 318.15 K [mPa·s]
x1 = 0.1581 | 977 | 969.1 | 963.5 | 1.912 | 1.515 | 1.225
x1 = 0.2969 | 994.2 | 986.2 | 980.3 | 2.291 | 1.759 | 1.394
x1 = 0.4199 | 1010.9 | 1002.8 | 996.5 | 2.659 | 1.997 | 1.561
x1 = 0.5297 | 1027.6 | 1019.4 | 1012.8 | 2.963 | 2.206 | 1.709
x1 = 0.6282 | 1044.1 | 1035.9 | 1029.1 | 3.173 | 2.367 | 1.831
x1 = 0.7171 | 1060.2 | 1052.3 | 1045.3 | 3.331 | 2.485 | 1.929
x1 = 0.7977 | 1076.7 | 1068.7 | 1061.5 | 3.395 | 2.541 | 1.978
x1 = 0.8711 | 1093.8 | 1085.7 | 1078.1 | 3.399 | 2.562 | 2.016
x1 = 0.9383 | 1111.1 | 1102.9 | 1094.6 | 3.348 | 2.55 | 2.003
x1 = 1 | 1129.2 | 1120.5 | 1111.1 | 3.302 | 2.542 | 2.001

NC=O [formamide] + C[S+](C)[O-]
298.15 K
Settings | speed of sound [m/s]
x1 = 0.1616 | 1480.1
x1 = 0.3025 | 1480.6
x1 = 0.4264 | 1483.9
x1 = 0.5363 | 1492.3
x1 = 0.6343 | 1502.9
x1 = 0.7224 | 1512.7
x1 = 0.8019 | 1526.4
x1 = 0.874 | 1543.7
x1 = 0.9398 | 1561.2
x1 = 1 | 1591.3

101.3 kPa
Settings | mass density, 298.15 K [kg/m3] | mass density, 308.15 K [kg/m3] | mass density, 318.15 K [kg/m3] | viscosity, 298.15 K [mPa·s] | viscosity, 308.15 K [mPa·s] | viscosity, 318.15 K [mPa·s]
x1 = 0.1616 | 1099.3 | 1090.7 | 1082.7 | 2.457 | 1.859 | 1.64
x1 = 0.3025 | 1102.8 | 1094.9 | 1087.3 | 2.868 | 2.135 | 1.823
x1 = 0.4264 | 1106.3 | 1098.5 | 1090.9 | 3.214 | 2.365 | 1.968
x1 = 0.5363 | 1109.5 | 1101.6 | 1093.9 | 3.468 | 2.52 | 2.059
x1 = 0.6343 | 1112.6 | 1104.6 | 1096.7 | 3.608 | 2.621 | 2.112
x1 = 0.7224 | 1115.8 | 1107.6 | 1099.5 | 3.652 | 2.653 | 2.118
x1 = 0.8019 | 1119.1 | 1110.7 | 1102.3 | 3.626 | 2.639 | 2.083
x1 = 0.874 | 1122.5 | 1113.9 | 1105.3 | 3.54 | 2.613 | 2.054
x1 = 0.9398 | 1125.8 | 1117.2 | 1108.2 | 3.426 | 2.571 | 2.021
x1 = 1 | 1129.2 | 1120.5 | 1111.1 | 3.302 | 2.542 | 2.001

— the NIST ThermoML archive (doi:10.1021/je700026d)
